According to patent US8299089B2, “Multi-arm polymeric conjugates of 7-ethyl-10-hydroxycamptothecin for treatment of breast, colorectal, pancreatic, ovarian and lung cancers” (priority 2006, dated 2012):

Legend:
Colo 205 = assay: In vitro cytotoxicity, MTS assay, Colo 205; format: cell-based
Description: (§1) In Table 2, the cytotoxicity (μM of each compound that results in an IC50) provides an indication of the in vitro anti-tumor potency of each compound. This study was used to determine the effect of PEGylation of four-arm PEGylated 7-ethyl-10-hydroxycamptothecin conjugates. […] Cells were incubated with drugs for 72 hours at 37° C. Following incubation, MTS dye was added and formation of a colored product (formazan) was measured at 490 nm.

HT29 = assay: In vitro cytotoxicity, MTS assay, HT29; format: cell-based
Description: as §1

A549 = assay: In vitro cytotoxicity, MTS assay, A549; format: cell-based
Description: as §1

OVCAR-3 = assay: In vitro cytotoxicity, MTS assay, OVCAR-3; format: cell-based
Description: as §1

[1] = system: human mammary carcinoma (MX-1); assay: Multiple dose efficacy in MX-1 breast tumor xenograft mouse model; format: in vivo, nude mice; details: i.v. 5 mg/kg/dose (q2d×6), day 31
Description: The mice were dosed 5 mg/kg/day […] (every 2 days [q×2d]×6). Mouse weight and tumor sizes were monitored up to the 31st day after the first dose administration and subsequent administrations.

[2] = Solubility in aqueous saline solution; format: physicochemical
[3] = Hydrolysis / 7-ethyl-10-hydroxycamptothecin release in human plasma; format: in vitro ADME; details: for Doubling Time in Plasma, Human: 7-ethyl-10-hydroxycamptothecin formation rate from conjugates; for t1/2 in Human Plasma: PEG conjugate half life
Description: The aqueous stability and hydrolysis properties in rat and human plasma were monitored using UV based HPLC methods.

[4] = 7-ethyl-10-hydroxycamptothecin release in mouse plasma; format: in vitro ADME; details: 7-ethyl-10-hydroxycamptothecin formation rate from conjugates
[5] = 7-ethyl-10-hydroxycamptothecin release in rat plasma; format: in vitro ADME; details: 7-ethyl-10-hydroxycamptothecin formation rate from conjugates
[6] = Maximum tolerated dose (MTD) in nude mice; details: mouse, in vivo
Description: Mice were monitored for 14 days for mortality and signs of illness and sacrificed when body weight loss was >20% of the pretreatment body weight.

PANC-1 = assay: In vitro cytotoxicity, MTS assay, PANC-1; format: cell-based; details: Homo sapiens, PANC-1, 72 h
Description: as §1

MIA PaCa-2 = assay: In vitro cytotoxicity, MTS assay, MIA PaCa-2; format: cell-based; details: Homo sapiens, MIA PaCa-2, 72 h
Description: as §1

ASPC-1 = assay: In vitro cytotoxicity, MTS assay, ASPC-1; format: cell-based; details: Homo sapiens, ASPC1, 72 h
Description: as §1

BxPC-3 = assay: In vitro cytotoxicity, MTS assay, BxPC-3; format: cell-based; details: Homo sapiens, BXPC-3, 72 h
Description: as §1

OV90 = assay: In vitro cytotoxicity, MTS assay, OV90; format: cell-based; details: Homo sapiens, OV-90, 72 h
Description: as §1

OVCAR-8 = assay: In vitro cytotoxicity, MTS assay, OVCAR-8; format: cell-based; details: Homo sapiens, OVCAR-8, 72 h
Description: as §1

A2780 = assay: In vitro cytotoxicity, MTS assay, A2780; format: cell-based; details: Homo sapiens, A2780, 72 h
Description: as §1

SK-0V-3 = assay: In vitro cytotoxicity, MTS assay, SK-0V-3; format: cell-based; details: 72 h
Description: as §1

[7] = system: human mammary carcinoma (MX-1); assay: Single dose efficacy in MX-1 breast tumor xenograft mouse model; format: in vivo, nude mice; details: day 31
Description: Following at least one week of acclimation, tumors were established by implanting small tumor fragments from donor mice into a single subcutaneous site, on the left auxiliary flank region of nude mice. The tumor implantation site was observed twice weekly and measured once palpable. The tumor volume for each mouse was determined by measuring two dimensions with calipers and calculated using the formula: tumor volume=(length×width^2). […] Drugs were administered intravenously via the tail vein as a single dose of 20 mg/kg body weight of a mouse. […] Mouse weight and tumor sizes were measured at the beginning of study and on the 31st day after the single dose administration.
The overall growth of tumors was calculated as the mean tumor volume (TV). A percent treatment over control (T/C) was also calculated. The percentage of tumor regression indicates the in vivo activity of each compound.

[8] = system: human mammary, MX-1 tumors; assay: Efficacy in small and large MX-1 breast tumor xenografted mice; format: in vivo, nude mice
Description: The antitumor efficacy of 4armPEG-Gly-(7-ethyl-10-hydroxycamptothecin) was evaluated in nude mice bearing small (about 100 mm^3) or large (about 450 mm^3) established human mammary, MX-1 tumors. The antitumor therapeutic activities were determined in mice both with a single dose or multiple dose regimens.
Four of six mice were cured as of day 54. […] All animals were sacrificed by day 20 due to excessive tumor burden.

[9] = system: MiaPaCa-2 pancreatic tumor cells; assay: Efficacy in MiaPaCa-2 pancreatic tumor xenograft mice; format: in vivo
[10] = system: HT-29 colorectal tumor cells; assay: Efficacy in HT-29 colorectal tumor xenograft mice; details: during the treatment

^40k4arm-PEG-Ala-(20)-(7-ethyl-10-hydroxycamptothecin) [Compound 12]
IC50 (Colo 205; Table 3, Colo 205 (colorectal)): 0.03 µM | IC50 (HT29; Table 3, HT29 (colorectal)): 0.16 µM | IC50 (A549; Table 3, A549 (lung)): 4.4 µM | IC50 (OVCAR-3; Table 3, OVCAR-3 (ovarian)): 0.14 µM | Chg in TV ± SD [1]: −91 ± 11% | Cures [1]: 67% | F/I [1]: 10% | Mean TV ± SD [1]: 10 ± 11 mm^3 | Median TV [1]: 9.6 mm^3 | Regressions [1]: 100% | Survival [1]: 100% | T/C [1]: 1.2% | TGI [1]: 99% | Solubility in Saline [2]: 121 mg/mL | Doubling Time in Plasma, Human [3]: 51.9 min | t1/2 in Human Plasma [3]: 12.5 min | Doubling Time in Plasma, Mouse [4]: 45.8 min | Doubling Time in Plasma, Rat [5]: 753 min

CCc1c2c(nc3ccc(OC(=O)N4CCC(N5CCCCC5)CC4)cc13)-c1cc3c(c(=O)n1C2)COC(=O)[C@]3(O)CC [CPT-11, Irinotecan, reference compound]
MTD at 14 days ([6]; multiple dose (q2d×5)): 40 mg/kg | MTD at 14 days ([6]; single dose): 80 mg/kg | IC50 (Colo 205; Homo sapiens, COLO 205): 20 µM | IC50 (Colo 205; Homo sapiens, COLO 205, 72 h): 11 ± 1.4 µM | IC50 (HT29; Homo sapiens, HT-29, 72 h): 27 ± 8.6 µM | IC50 (HT29; Homo sapiens, HT-29, Table 3, HT29 (colorectal)): 56 µM | IC50 (A549; Homo sapiens, A549, 72 h): 67 ± 17 µM | IC50 (A549; Homo sapiens, Table 3, A549 (lung)): 13 µM | IC50 (PANC-1): 34 ± 16 µM | IC50 (MIA PaCa-2): 67 ± 46 µM | IC50 (ASPC-1): 33 ± 1 µM | IC50 (BxPC-3): 44 ± 44 µM | IC50 (OVCAR-3; Homo sapiens, OVCAR-3, 72 h): 20 ± 7.1 µM | IC50 (OVCAR-3; Homo sapiens, Table 3, OVCAR-3 (ovarian)): 41 µM | IC50 (OV90): 18 ± 4.8 µM | IC50 (OVCAR-8): 9 ± 1.3 µM | IC50 (A2780): 8 ± 3.5 µM | IC50 (SK-0V-3): 52 ± 8.5 µM | Mean TV ± SD ([7]; single dose i.v. 20 mg/kg (conjugate as 7-ethyl-10-hydroxycamptothecin equivalent)): 845 ± 50 mm^3 | Cures ([7]; single dose i.v. 20 mg/kg): 0% | F/I ([7]; single dose i.v. 20 mg/kg): 843% | Median TV ([7]; single dose i.v. 20 mg/kg): 845 mm^3 | Regressions ([7]; single dose i.v. 20 mg/kg): 0% | Survival ([7]; single dose i.v. 20 mg/kg): 0% | T/C ([7]; single dose i.v. 20 mg/kg): 108% | TGI ([7]; single dose i.v. 20 mg/kg): 26% | Chg in TV ± SD [1]: 423 ± 243% | Cures [1]: 0% | F/I [1]: 594% | Mean TV ± SD [1]: 632 ± 698 mm^3 | Median TV [1]: 340 mm^3 | Regressions [1]: 0% | Survival [1]: 0% | T/C [1]: 43% | TGI [1]: 44% | effect on body weight ([8]; given at the MTD, for the duration of the treatment): did not significantly decrease the body weight | tumor growth inhibition ([8]; large tumors, 10 mg/kg q2d×5): effective TGI until treatment was discontinued, after which tumors regrew | mice in which tumors regrew ([8]; large tumors, 40 mg/kg q2d×5, after ~5 weeks): four of the six | TGI ([8]; large tumors, multiple doses at MTD 40 mg/kg q2d×5, as of day 13): ~95% | TGI ([8]; large tumors, single MTD 80 mg/kg, day 13): 70% | TGI ([8]; small tumors (about 100 mm^3), multiple doses 20 mg/kg q2d×5, as of day 31): 44% | TGI ([8]; small tumors (about 100 mm^3), single dose 20 mg/kg): did not inhibit tumor growth | TGI ([9]; multiple doses i.v. (10 mg/kg/dose for five days; CPT-11 also 40 mg/kg/dose)): 34% | TGI ([9]; single dose i.v. (30 mg/kg; CPT-11 also 80 mg/kg)): 0% | effect on body weight [10]: did not significantly decrease the body of weight

^40K4arm-PEG-Sar-(20)-(7-ethyl-10-hydroxycamptothecin) [Compound 23]
IC50 (Colo 205; Table 3, Colo 205 (colorectal)): 0.04 µM | IC50 (HT29; Table 3, HT29 (colorectal)): 0.27 µM | IC50 (A549; Table 3, A549 (lung)): 11 µM | IC50 (OVCAR-3; Table 3, OVCAR-3 (ovarian)): 0.17 µM | Chg in TV ± SD [1]: −87 ± 12% | Cures [1]: 100% | F/I [1]: 13% | Mean TV ± SD [1]: 12 ± 10 mm^3 | Median TV [1]: 14.6 mm^3 | Regressions [1]: 100% | Survival [1]: 100% | T/C [1]: 1.9% | TGI [1]: 99% | Doubling Time in Plasma, Human [3]: 28.8 min | t1/2 in Human Plasma [3]: 19.0 min | Doubling Time in Plasma, Mouse [4]: 43.4 min | Doubling Time in Plasma, Rat [5]: 481 min
